Assays:
[1] = Oxidation with sodium hexachloroiridate(IV); conditions: in 15 minutes
[2] = Photooxidation of single-stranded oligonucleotide, irradiation at 366 nm in the presence of riboflavin; format: physicochemical; conditions: single-stranded ODN, irradiated at 366 nm in the presence of riboflavin
Text: The inventors conducted photooxidization of the oligonucleotide (7) containing benzoyl-^edaG (^Bz-edaG), for example, 5′-d(TATAAT^Bz-edaGTAATAT)-3′.
The single-stranded oligonucleotide (ODN) 5′-d(TATAAT^edaGTAATAT)-3′ was irradiated at 366 nm in the presence of riboflavin.

[3] = Measurement of oxidation potential (E1/2); format: physicochemical; conditions: vs. NHE; 100 mM LiClO4 solution, room temperature
Description: The oxidation potential (E1/2) of benzoyl-^edaG was measured in 100 mM LiClO4 solution at room temperature by ALS electrochemical analyzer model 660-A. The scanning speed was 100 mV/sec. A glass carbon electrode was used as a sample electrode; a platinum wire as a counter electrode; and SCE as a reference electrode.

Substance	decomposed at the site of the modified edaG [1] [%]	t1/2 of decomposition [2] [min]	oxidation potential (E1/2) [3] [V]
5′-d(TATAAT^Bz-edaGTAATAT)-3′	57	6.2	–
benzoyl-^edaG [^Bz-edaG]	–	–	0.59
5′-d(TATAAT^edaGTAATAT)-3′	–	6.2	–
